# How the values were obtained:
# [1] = target: rat P2X7 (Rattus norvegicus (Rat), UniProt Q64663); test: Rat P2X7 functional assay (Ca2+ influx, Fluo-4, FDSS); format: cell-based; conditions: HEK293 cells stably expressing rat P2X7; BzATP final 10 microM; 7-point dose-response; read-out: Antagonistic activities with respect to the rat P2X7 receptor (IC50)
# Summary of the method: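 HEK293 cells stably expressing rat P2X7 (5,000/well, plated 24 h before) loaded with Fluo-4; compounds preincubated 10 min at room temperature, then Ca2+ rise after 10 microM BzATP (final) read on FDSS (480/540 nm). IC50 from 7-point curves, duplicate wells.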
# [2] = target: human P2X7 (Homo sapiens (Human), UniProt Q99572); test: Human P2X7 functional assay (Ca2+ influx, Fluo-4, FDSS); format: cell-based; conditions: antagonistic activity with respect to the human P2X7 receptor; BzATP final concentration 80 microM
# Summary of the method: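 HEK293 cells stably expressing C-terminally FLAG-tagged human P2X7, loaded with Fluo-4. Compounds were preincubated for 10 min at room temperature, then 80 μM BzATP (final) was added and Ca2+ fluorescence read at 540 nm (480 nm excitation) by FDSS. IC50 values come from 7-point curves, duplicate wells.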
# human P2X7, sequence (Q99572 whole entry): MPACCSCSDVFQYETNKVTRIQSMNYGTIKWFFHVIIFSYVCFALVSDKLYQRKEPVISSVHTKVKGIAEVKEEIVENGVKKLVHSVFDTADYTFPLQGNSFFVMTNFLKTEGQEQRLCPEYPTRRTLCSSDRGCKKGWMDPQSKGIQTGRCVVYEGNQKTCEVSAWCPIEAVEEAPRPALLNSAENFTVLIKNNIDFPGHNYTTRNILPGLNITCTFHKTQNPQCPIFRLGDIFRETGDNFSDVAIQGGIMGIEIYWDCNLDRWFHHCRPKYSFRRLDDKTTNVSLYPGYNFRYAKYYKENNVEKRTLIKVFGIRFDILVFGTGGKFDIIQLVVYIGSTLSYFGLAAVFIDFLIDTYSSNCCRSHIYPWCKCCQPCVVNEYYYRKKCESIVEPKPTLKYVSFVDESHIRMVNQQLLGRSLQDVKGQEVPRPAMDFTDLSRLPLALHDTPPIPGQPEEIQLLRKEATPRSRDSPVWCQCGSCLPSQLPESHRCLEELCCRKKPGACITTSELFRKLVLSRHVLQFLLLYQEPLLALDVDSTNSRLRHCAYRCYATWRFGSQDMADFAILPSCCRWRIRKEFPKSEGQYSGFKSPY
# rat P2X7, sequence (Q64663 whole entry): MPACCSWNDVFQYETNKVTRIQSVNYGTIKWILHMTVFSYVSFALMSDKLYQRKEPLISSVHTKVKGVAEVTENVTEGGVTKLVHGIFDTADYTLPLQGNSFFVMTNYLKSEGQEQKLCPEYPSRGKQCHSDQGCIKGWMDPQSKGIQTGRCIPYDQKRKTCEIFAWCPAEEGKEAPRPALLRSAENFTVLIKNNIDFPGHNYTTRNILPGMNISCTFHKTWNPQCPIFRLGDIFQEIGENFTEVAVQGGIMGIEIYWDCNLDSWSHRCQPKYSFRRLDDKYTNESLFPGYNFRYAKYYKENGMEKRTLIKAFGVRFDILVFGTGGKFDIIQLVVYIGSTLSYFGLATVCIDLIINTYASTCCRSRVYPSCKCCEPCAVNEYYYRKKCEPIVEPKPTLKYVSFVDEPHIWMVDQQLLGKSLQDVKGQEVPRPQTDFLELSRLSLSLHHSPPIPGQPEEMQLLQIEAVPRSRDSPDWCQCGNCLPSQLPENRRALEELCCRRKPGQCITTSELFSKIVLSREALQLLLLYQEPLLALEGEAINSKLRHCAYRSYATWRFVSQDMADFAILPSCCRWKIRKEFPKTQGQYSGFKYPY
smiles,measurement,setting,value
"O=C(NCc1c(Cl)cc(Cl)cc1CO)[C@]1(F)CC[C@H](OCCO)c2ncccc21 [Example 343, (5S,8S)-N-(2,4-dichloro-6-(hydroxymethyl)benzyl)-5-fluoro-8-(2-hydroxyethoxy)-5,6,7,8-tetrahydroquinoline-5-carboxamide]",IC50,[1],< 1000 nM
same,IC50,[2],< 50 nM
"N#CC[C@]1(O)CC[C@@](F)(C(=O)NCc2ccc(F)cc2Cl)c2cccnc21 [Example 281, (5S,8R)-N-(2-chloro-4-fluorobenzyl)-8-(cyanomethyl)-5-fluoro-8-hydroxy-5,6,7,8-tetrahydroquinoline-5-carboxamide]",IC50,[1],< 1000 nM
same,IC50,[2],301 to 1000 nM
"N#CC[C@]1(O)CC[C@@](F)(C(=O)NCc2c(Cl)cc(F)cc2CO)c2cccnc21 [Example 284, (5S,8R)-N-(2-chloro-4-fluoro-6-(hydroxymethyl)benzyl)-8-(cyanomethyl)-5-fluoro-8-hydroxy-5,6,7,8-tetrahydroquinoline-5-carboxamide]",IC50,[1],< 1000 nM
same,IC50,[2],< 50 nM
"O=C(NCc1cccc(C(F)(F)F)c1Cl)C1(F)CCC(O)(CO)c2ncccc21 (stereo not drawn) [Example 35, N-(2-chloro-3-(trifluoromethyl)benzyl)-5-fluoro-8-hydroxy-8-(hydroxymethyl)-5,6,7,8-tetrahydroquinoline-5-carboxamide]",IC50,[1],< 1000 nM
same,IC50,[2],< 50 nM
"O=C(NCc1ccc(Cl)cc1Cl)[C@H]1CC[C@@H](O)c2ncccc21 [Example 88, (5S,8R)-N-(2,4-dichloro-benzyl)-8-hydroxy-5,6,7,8-tetrahydroquinoline-5-carboxamide]",IC50,[1],< 1000 nM
same,IC50,[2],< 50 nM
"C[C@]1(O)CC[C@@](F)(C(=O)NCc2c(F)cc(Cl)cc2F)c2cccnc21 [Example 269, (5S,8S)-N-(4-chloro-2,6-difluorobenzyl)-5-fluoro-8-hydroxy-8-methyl-5,6,7,8-tetrahydroquinoline-5-carboxamide]",IC50,[1],< 1000 nM
same,IC50,[2],< 50 nM
"O=C(NCc1c(F)cc(Cl)cc1F)[C@]1(F)CC[C@@](O)(CO)c2ncccc21 [Example 324, (5S,8S)-N-(4-chloro-2,6-difluorobenzyl)-5-fluoro-8-hydroxy-8-(hydroxymethyl)-5,6,7,8-tetrahydroquinoline-5-carboxamide]",IC50,[1],< 1000 nM
same,IC50,[2],50 to 100 nM
"O=C(NCc1ccc(F)cc1C(F)(F)F)[C@]1(F)CC[C@@H](O)c2ncccc21 [Example 110, (5S,8R)-5-fluoro-N-(4-fluoro-2-(trifluoromethyl)benzyl)-8-hydroxy-5,6,7,8-tetrahydroquinoline-5-carboxamide]",IC50,[1],< 1000 nM
same,IC50,[2],301 to 1000 nM
N#CC[C@]1(O)CC[C@@](F)(C(=O)NCc2c(Cl)cc(Cl)cc2CO)c2cccnc21 [Example 283],IC50,[1],< 1000 nM
same,IC50,[2],< 50 nM
"COc1ccc(CNC(=O)[C@]2(F)CC[C@H](O)c3ncccc32)c(Cl)c1 [Example 172, (5S,8S)-N-(2-chloro-4-methoxybenzyl)-5-fluoro-8-hydroxy-5,6,7,8-tetrahydroquinoline-5-carboxamide]",IC50,[1],< 1000 nM
same,IC50,[2],101 to 300 nM
"O=C(NCc1ccc(F)cc1Cl)[C@]1(F)CC[C@@](O)(CNCCO)c2ncccc21 (relative stereo) [Example 56, (5S*,8R*)-N-(2-chloro-4-fluorobenzyl)-5-fluoro-8-hydroxy-8-(((2-hydroxy-ethyl)amino)methyl)-5,6,7,8-tetrahydro-quinoline-5-carboxamide]",IC50,[1],< 1000 nM
same,IC50,[2],< 50 nM
"C[C@@H](NC(=O)[C@]1(F)CC[C@](C)(O)c2ncccc21)c1ccc(F)cc1Cl [Example 270, (5S,8S)-N-((R)-1-(2-chloro-4-fluorophenyl)ethyl)-5-fluoro-8-hydroxy-8-methyl-5,6,7,8-tetrahydroquinoline-5-carboxamide]",IC50,[1],< 1000 nM
same,IC50,[2],< 50 nM
"C[C@H](NC(=O)[C@]1(F)CC[C@H](O)c2ncccc21)c1ccc(F)cc1Cl [Example 239, (5S,8S)-N-((S)-1-(2-chloro-4-fluorophenyl)ethyl)-5-fluoro-8-hydroxy-5,6,7,8-tetrahydroquinoline-5-carboxamide]",IC50,[1],< 1000 nM
same,IC50,[2],101 to 300 nM
"Cc1cc(Cl)cc(Cl)c1CNC(=O)C1CCC(O)(CO)c2ncccc21 (stereo not drawn) [Example 33, N-(2,4-dichloro-6-methylbenzyl)-8-hy-droxy-8-(hydroxymethyl)-5,6,7,8-tetra-hydroxuqinoline-5-carboxamide]",IC50,[1],< 1000 nM
same,IC50,[2],< 50 nM
"O=C(NCc1ccc(F)cc1F)[C@@H]1CC[C@H](O)c2ncccc21 [Example 74, (5R,8S)-N-(2,4-difluoro-benzyl)-8-hydroxy-5,6,7,8-tetrahydroquinoline-5-carboxamide]",IC50,[1],< 1000 nM
same,IC50,[2],101 to 300 nM
"CO[C@H]1CC[C@@](F)(C(=O)NCc2c(F)cc(F)cc2F)c2cccnc21 [Example 341, (5S,8S)-5-fluoro-8-methoxy-N-(2,4,6-trifluorobenzyl)-5,6,7,8-tetrahydroquinoline-5-carboxamide]",IC50,[1],< 1000 nM
same,IC50,[2],50 to 100 nM
"N#Cc1ccc(CNC(=O)[C@]2(F)CC[C@H](O)c3ncccc32)c(F)c1 [Example 201, (5S,8S)-N-(4-cyano-2-fluorobenzyl)-5-fluoro-8-hydroxy-5,6,7,8-tetrahydroquinoline-5-carboxamide]",IC50,[1],< 1000 nM
same,IC50,[2],50 to 100 nM
"O=C(NCc1ccc(Cl)cc1Cl)[C@]1(F)CC[C@@H](O)c2ncccc21 [Example 106, (5S,8R)-N-(2,4-dichlorobenzyl)-5-fluoro-8-hydroxy-5,6,7,8-tetrahydroquinoline-5-carboxamide]",IC50,[1],< 1000 nM
same,IC50,[2],< 50 nM
"CO[C@@H]1CC[C@@](F)(C(=O)NCc2c(Cl)cc(Cl)cc2CO)c2cccnc21 [Example 334, (5S,8R)-N-(2,4-dichloro-6-(hydroxymethyl)benzyl)-5-fluoro-8-methoxy-5,6,7,8-tetrahydroquinoline-5-carboxamide]",IC50,[1],< 1000 nM
same,IC50,[2],< 50 nM
"O=C(NCc1ccc(F)c(Cl)c1Cl)[C@]1(F)CC[C@@](O)(CO)c2ncccc21 [Example 320, (5S,8S)-N-(2,3-dichloro-4-fluorobenzyl)-5-fluoro-8-hydroxy-8-(hydroxymethyl)-5,6,7,8-tetrahydroquinoline-5-carboxamide]",IC50,[1],< 1000 nM
same,IC50,[2],< 50 nM
"Cc1cc(Cl)cc(Cl)c1CNC(=O)[C@H]1CC[C@@H](O)c2ncccc21 [Example 85, (5S,8R)-N-(2,4-dichloro-6-methylbenzyl)-8-hy-droxy-5,6,7,8-tetrahydro-quinoline-5-carboxamide]",IC50,[1],< 1000 nM
same,IC50,[2],< 50 nM
"O=C(NCc1ccc(Cl)cc1Cl)[C@]1(F)CC[C@@](O)(CN2CC(O)C2)c2ncccc21 (relative stereo) [Example 51, (5S*,8R*)-N-(2,4-dichlorobenzyl)-5-fluoro-8-hydroxy-8-((3-hydroxyaze-tidin-1-yl)methyl)-5,6,7,8-tetrahydro-quinoline-5-carboxamide]",IC50,[1],< 1000 nM
same,IC50,[2],< 50 nM
"O=C(NCc1c(F)cc(Cl)cc1Cl)[C@@H]1CC[C@H](O)c2ncccc21 [Example 70, (5R,8S)-N-(2,4-dichloro-6-fluorobenzyl)-8-hy-droxy-5,6,7,8-tetrahydro-quinoline-5-carboxamide]",IC50,[1],< 1000 nM
same,IC50,[2],< 50 nM
"O=C(NC1COc2ccccc2C1)[C@]1(F)CC[C@H](O)c2ncccc21 (stereo partly drawn) [Example 233, (5S,8S)-N-(chroman-3-yl)-5-fluoro-8-hydroxy-5,6,7,8-tetrahydroquinoline-5-carboxamide]",IC50,[1],< 1000 nM
same,IC50,[2],101 to 300 nM

# — patent publication US11077100B2, “Tetrahydroquinoline derivatives as P2X7 receptor antagonists” (RaQualia Pharma Inc., priority 2017, dated 2021)
